# Laboratory results published in patent publication US20260034123A1 (Cedilla Therapeutics, Inc., priority 2022, published 2026).
# pIC50: −log10 of the molar value.
# How the values were obtained:
# CDK2/Cyclin E1 = CDK2/Cyclin E1 (Homo sapiens, UniProt P24941); experiment: ADP-Glo Luminescent Kinase Assay (CDK2/E1-37C); format: biochemical; settings: 0.18 nM CDK2/Cyclin E1, 100 μM ATP, Histone H1, 37° C.; read-out: ADPGLO (CDK2/E1-37C): IC50
# Experimental: Inhibition of CDK2/Cyclin E1 activity by the presence of small molecules was evaluated using ADP-Glo Luminescent Kinase Assay (Promega). Activated CDK2/Cyclin E1 was incubated with its substrate Histone H1 (SignalChem H10-54N) in the kinase reaction buffer (100 μM ATP, 50 mM HEPES pH 7.5, 10 mM MgCl2, 1 mM EDTA, 2 mM DTT, 0.01% Brij35, 0.5 mg/mL BSA). Luminescence was recorded with an Envision plate reader (PerkinElmer).
# Dose titrations of inhibitors in 100% DMSO were combined with 0.36 nM CDK2/Cyclin E1 in reaction buffer. The mixtures were incubated for 60 minutes at 37° C. before the addition of ATP and Histone H1 substrate to initiate the kinase reaction. The final conditions were 0.18 nM CDK2/Cyclin E1, 100 μM ATP, and […] Histone H1. The reactions were incubated at 37° C. for 90 minutes before being stopped with the addition of ADP-Glo reagent. This mixture was incubated at room temperature for 60 minutes before Kinase Detection Solution is added to generate luminescence. The stopped reactions were analyzed on an Envision plate reader. The conversion ratios were normalized to yield % activity, plotted against compound concentration, and fit to a four-parameter equation to determine the IC50 for each compound.
# Kuramochi cells RB-WT = experiment: IncuCyte Kuramochi cell proliferation assay, RB-WT; format: cell-based; settings: 72 hours, cell count
# Experimental: (§1) IncuCyte® assay was used to measure the effect of disclosed compounds on cell proliferation. Fluorescent microscopy images of cells were taken immediately after compound treatment and 72 hours later. Image analysis software was used to obtain cell counts as a function of compound concentration. Kuramochi cells labeled with mApple-H2B were seeded on 384-well assay-ready plates. Plates were placed in an IncuCyte® (Sartorius) and scanned at 0 and 72 hours. IncuCyte® software was used to count the number of fluorescent nuclei in each well. The fold change in cell count from 0 to 72 hours in wells treated with increasing compounds concentrations (10 pts, 1/2 log dilution, 20 µM top concentration) was normalized to DMSO control wells. The normalized cell counts were fit with dose response curves and a GI50 was calculated.
# Kuramochi cells RB-KO = experiment: IncuCyte Kuramochi cell proliferation assay, RB-KO; format: cell-based; settings: 72 hours, cell count, batch mean
# Experimental: as §1
Structure (SMILES),pIC50 (CDK2/Cyclin E1),pIC50 (Kuramochi cells RB-WT),pIC50 (Kuramochi cells RB-KO)
"O=C(O)c1c(COC[C@@H]2CN(C(=O)c3cnn(Cc4ccc(Cl)cc4F)c3)CC23CN(C(=O)C2(C(F)(F)F)CC2)C3)cccc1C1CCC(C(F)(F)F)CC1 (stereo in doubt) [Compound I-71, 2-(((6-(1-(4-chloro-2-fluorobenzyl)-1H-pyrazole-4-carbonyl)-2-(1-(trifluoromethyl)cyclopropane-1-carbonyl)-2,6-diazaspiro[3.4]octan-8-yl)methoxy)methyl)-6-(4-(trifluoromethyl)cyclohexyl)benzoic acid]",≥ 6.30,< 5.00,< 5.00
"O=C(O)c1ccccc1-c1c(COC[C@@H]2CN(C(=O)c3cnn(Cc4ccc(F)cc4)c3)CC23CN(C(=O)C2(C(F)(F)F)CC2)C3)cccc1C1CCC(C(F)(F)F)CC1 (stereo in doubt) [Compound I-104, 2′-(((6-(1-(4-fluorobenzyl)-1H-pyrazole-4-carbonyl)-2-(1-(trifluoromethyl)cyclopropanecarbonyl)-2,6-diazaspiro[3.4]octan-8-yl)methoxy)methyl)-6′-(4-(trifluoromethyl)cyclohexyl)-[1,1′-biphenyl]-2-carboxylic acid]",≥ 6.30,5.30 to 6.30,5.00 to 5.30
"O=C(O)c1ccccc1Cn1cc(C(=O)N2C[C@@H](COCc3cccc(C4CCC(C(F)(F)F)CC4)c3)C3(C2)CN(C(=O)C2(C(F)(F)F)CC2)C3)cn1 (stereo in doubt) [Compound I-113, 2-((4-(8-(((3-(4-(trifluoromethyl)cyclohexyl)benzyl)oxy)methyl)-2-(1-(trifluoromethyl)cyclopropane-1-carbonyl)-2,6-diazaspiro[3.4]octane-6-carbonyl)-1H-pyrazol-1-yl)methyl)benzoic acid]",5.30 to 6.30,< 5.00,< 5.00
"O=C(O)c1ccccc1Cn1cc(C(=O)N2C[C@@H](COCc3cccc(C4CCC(C(F)(F)F)CC4)c3F)C3(C2)CN(C(=O)C2(C(F)(F)F)CC2)C3)cn1 (stereo in doubt) [Compound I-115, 2-((4-(8-(((2-fluoro-3-(4-(trifluoromethyl)cyclohexyl)benzyl)oxy)methyl)-2-(1-(trifluoromethyl)cyclopropane-1-carbonyl)-2,6-diazaspiro[3.4]octane-6-carbonyl)-1H-pyrazol-1-yl)methyl)benzoic acid]",≥ 6.30,< 5.00,< 5.00
"O=C(O)c1c(COCC2CN(c3cc(F)cc4ncsc34)CC23CN(C(=O)C2(C(F)(F)F)CC2)C3)cccc1C1CCC(C(F)(F)F)CC1 (stereo not drawn) [Compound I-61, 2-(((6-(5-fluorobenzo[d]thiazol-7-yl)-2-(1-(trifluoromethyl)cyclopropane-1-carbonyl)-2,6-diazaspiro[3.4]octan-8-yl)methoxy)methyl)-6-(4-(trifluoromethyl)cyclohexyl)benzoic acid]",< 5.00,< 5.00,–
"O=C(O)C(=CC1CN(C(=O)c2cnn(Cc3ccc(C(F)(F)F)cc3)c2)CC12CN(C(=O)C1(C(F)(F)F)CC1)C2)Cc1cccc(-c2ccc(C(F)(F)F)cc2)n1 (stereo not drawn) [Compound I-62, 3-(6-(1-(4-(Trifluoromethyl)benzyl)-1H-pyrazole-4-carbonyl)-2-(1-(trifluoromethyl)cyclopropane-1-carbonyl)-2,6-diazaspiro[3.4]octan-8-yl)-2-((6-(4-(trifluoromethyl)phenyl)pyridin-2-yl)methyl)acrylic acid]",< 5.00,< 5.00,–
"O=C(O)C(=CC1CN(C(=O)c2cnc(O)cn2)CC12CN(C(=O)C1(C(F)(F)F)CC1)C2)Cc1cccc(-c2ccc(C(F)(F)F)cc2)n1 (stereo not drawn) [Compound I-63, 3-(6-(5-hydroxypyrazine-2-carbonyl)-2-(1-(trifluoromethyl)cyclopropane-1-carbonyl)-2,6-diazaspiro[3.4]octan-8-yl)-2-((6-(4-(trifluoromethyl)phenyl)pyridin-2-yl)methyl)acrylic acid]",< 5.00,< 5.00,–
CS(=O)(=O)NC(=O)c1c(COC[C@@H]2CN(C(=O)c3cnn(Cc4ccc(C(F)(F)F)cc4)c3)CC23CN(C(=O)C2(C(F)(F)F)CC2)C3)cccc1C1CCC(C(F)(F)F)CC1 (stereo partly drawn) [Compound I-68],5.30 to 6.30,< 5.00,< 5.00
O=C(c1cnn(Cc2ccc(C(F)(F)F)cc2)c1)N1C[C@@H](COCc2cccc(C3CCC(C(F)(F)F)CC3)c2-c2nn[nH]n2)C2(C1)CN(C(=O)C1(C(F)(F)F)CC1)C2 (stereo partly drawn) [Compound I-69],≥ 6.30,< 5.00,< 5.00
O=C(O)c1c(COC[C@@H]2CN(C(=O)c3cnn(Cc4ccc(C(F)(F)F)cc4)c3)CC23CN(C(=O)C2(C(F)(F)F)CC2)C3)cccc1N1CCC(C(F)(F)F)CC1 [Compound I-72],5.30 to 6.30,< 5.00,< 5.00
O=C(O)c1c(COC[C@@H]2CN(C(=O)c3c[nH]nc3Cc3ccccc3)CC23CN(C(=O)C2(C(F)(F)F)CC2)C3)cccc1C1CCC(C(F)(F)F)CC1 (stereo partly drawn) [Compound I-73],5.30 to 6.30,< 5.00,< 5.00
O=C(O)c1c(COC[C@@H]2CN(C(=O)c3cnn(Cc4ccc(F)cc4C(F)(F)F)c3)CC23CN(C(=O)C2(C(F)(F)F)CC2)C3)cccc1C1CCC(C(F)(F)F)CC1 (stereo partly drawn) [Compound I-76],≥ 6.30,5.00 to 5.30,< 5.00
C[C@@H](c1ccc(F)cc1)n1cc(C(=O)N2CC(COCc3cccc(C4CCC(C(F)(F)F)CC4)c3C(=O)O)C3(C2)CN(C(=O)C2(C(F)(F)F)CC2)C3)cn1 (stereo partly drawn) [Compound I-77],5.30 to 6.30,< 5.00,< 5.00
C[C@H](c1ccc(F)cc1)n1cc(C(=O)N2CC(COCc3cccc(C4CCC(C(F)(F)F)CC4)c3C(=O)O)C3(C2)CN(C(=O)C2(C(F)(F)F)CC2)C3)cn1 (stereo partly drawn) [Compound I-78],5.30 to 6.30,< 5.00,< 5.00
"CC1(C)C[C@@H]1C(=O)N1CC2(CN(C(=O)c3cnn(Cc4ccc(F)cc4)c3)CC2COCc2cccc(C3CCC(C(F)(F)F)CC3)c2C(=O)NS(C)(=O)=O)C1 (stereo partly drawn) [Compound I-86, 2-(((2-((S)-2,2-dimethylcyclopropane-1-carbonyl)-6-(1-(4-fluorobenzyl)-1H-pyrazole-4-carbonyl)-2,6-diazaspiro[3.4]octan-8-yl)methoxy)methyl)-N-(methylsulfonyl)-6-(4-(trifluoromethyl)cyclohexyl)benzamide]",≥ 6.30,5.30 to 6.30,5.30 to 6.30
"CC1(C)C[C@@H]1C(=O)N1CC2(CN(C(=O)c3cnn(Cc4ccc(F)cc4)c3)CC2COCc2cccc(C3CCC4(CCC4)CC3)c2C(=O)O)C1 (stereo partly drawn) [Compound I-88, 2-(((2-((S)-2,2-dimethylcyclopropane-1-carbonyl)-6-(1-(4-fluorobenzyl)-1H-pyrazole-4-carbonyl)-2,6-diazaspiro[3.4]octan-8-yl)methoxy)methyl)-6-(spiro[3.5]nonan-7-yl)benzoic acid]",≥ 6.30,5.30 to 6.30,< 5.00
"CC1(C(=O)N2CC3(CN(C(=O)c4cnn(Cc5ccc(F)cc5)c4)C[C@H]3COCc3cccc(C4CCC(C(F)(F)F)CC4)c3C(=O)O)C2)CCO1 (stereo partly drawn) [Compound I-93, 2-((((8S)-6-(1-(4-fluorobenzyl)-1H-pyrazole-4-carbonyl)-2-(2-methyloxetane-2-carbonyl)-2,6-diazaspiro[3.4]octan-8-yl)methoxy)methyl)-6-(4-(trifluoromethyl)cyclohexyl)benzoic acid]",5.30 to 6.30,< 5.00,< 5.00
"CC(C)(C(=O)N1CC2(CN(C(=O)c3cnn(Cc4ccc(F)cc4)c3)C[C@H]2COCc2cccc(C3CCC(C(F)(F)F)CC3)c2C(=O)O)C1)C(F)(F)F (stereo partly drawn) [Compound I-94, (S)-2-(((6-(1-(4-fluorobenzyl)-1H-pyrazole-4-carbonyl)-2-(3,3,3-trifluoro-2,2-dimethylpropanoyl)-2,6-diazaspiro[3.4]octan-8-yl)methoxy)methyl)-6-(4-(trifluoromethyl)cyclohexyl)benzoic acid]",≥ 6.30,5.30 to 6.30,< 5.00
"O=C(O)c1c(COC[C@@H]2CN(C(=O)c3cnn(Cc4ccc(F)cc4)c3)CC23CN(C(=O)C2(C(F)(F)F)CCC2)C3)cccc1C1CCC(C(F)(F)F)CC1 (stereo partly drawn) [Compound I-95, (S)-2-(((6-(1-(4-fluorobenzyl)-1H-pyrazole-4-carbonyl)-2-(1-(trifluoromethyl)cyclobutanecarbonyl)-2,6-diazaspiro[3.4]octan-8-yl)methoxy)methyl)-6-(4-(trifluoromethyl)cyclohexyl)benzoic acid]",≥ 6.30,5.30 to 6.30,< 5.00
O=C(O)c1c(COC[C@@H]2CN(C(=O)c3cnn(Cc4ccc(F)cc4)c3)CC23CN(C(=O)C2CCO2)C3)cccc1C1CCC(C(F)(F)F)CC1 (stereo partly drawn) [Compound I-96],5.30 to 6.30,< 5.00,< 5.00
